From patent US20140235548A1, “COMPOSITIONS AND METHODS FOR JAMM PROTEIN INHIBITION” (Cleave Biosciences, Inc., priority 2011, published 2014) come the findings set out here.

Like-named read-outs stand apart in the source and are kept apart here. Where a SMILES comes first, the peptide text is derived from it. The star is where a group is joined. Cbz = O=C(OCc1ccccc1)*

Assay [1] concerns the target T1, CSN5 (Homo sapiens, UniProt Q92905). Put plainly: Csn5 fluorescence polarization assay: release of Nedd8OG from Cul1-Nedd8OG / SCF^Skp2-Nedd8OG by CSN. Type of assay: biochemical. Background: In fluorescence polarisation assays a small probe gives low polarisation when free and higher when bound to something large.
The target in assay [2] is T2, Rpn11 (Homo sapiens, UniProt O00487). Put plainly: Rpn11 fluorescence polarization assay with 26S proteasome and Ub4-peptide-Oregon Green substrate. Type of assay: biochemical. An excerpt:
As seens in FIG. 4A) the Rpn11 substrate consisted of six histidine residues followed by four ubiquitin sequences fallowed by the peptide sequence […]. The Oregon Green fluorophore was attached to the cysteine residue via maleimide chemistry. Following cleavage of the substrate by Rpn11, the product […] coupled to Oregon Green was released. The change in molecular weight of Oregon Green containing protein was detected by fluorescence polarization. The Rpn11 reaction can he inhibited with compound 1. In FIG. 4(B) progress curves for product generation by 26S proteasome (which contains Rpn11). Rpn11 cleaves the substrate immediately after the fourth ubiquitin (Ub). 5 nM Ub-Ub-Ub-Ub-peptide-oregon green substrate was incubated with 0.5 nM purified 26S proteasome for 120 min at room temperature. As labeled peptide is liberated, the fluorescence polarization diminishes. The cleavage reaction can be inhibited by the o-phenanthroline. In FIG. 4(C-E) dose-response curve for inhibition of Rpn11 by compound 1 (C), 3-hydroxy-4H-pyran-4-thione (D) or o-phenanthroline (E) were generated by adding varying doses of compound to the reaction mixture. At 120 minutes, fluorescence polarization was measured. Percent activity was calculated based on the amount of enzyme activity observed in the absence of added test agent.
An 8-point compound 001 dose titration curve was performed, by incubating Rpn11-containing 26S proteasome, Rpn11 substrate and compound (dose range 50 μM to 0.1 μM) and monitoring fluorescence polarization as per BIOEXAMPLE 4. Remaining activity as compared to DMSO control (% activity) was calculated and plotted versus compound 1 concentration and the curve was fit to a four-parameter fit model to obtain an IC50 value.

Assay [3] concerns the target T2, Rpn11. Put plainly: Ub^G76V-GFP proteasome reporter degradation in HeLa cells (Rpn11 activity in cells). Type of assay: cell-based. Particulars: cycloheximide, 90 min at 37° C., quantitative fluorescence microscopy, read-out: IC50, level of remaining Ub^G76V-GFP.
The test system of assay [4] is neddylated forms of Cullins 1, 2, and 4A. Nature of the assay: Accumulation of neddylated Cullins 1, 2 and 4A in HEK-293T cells (immunoblot). The format is cell-based, human. Particulars: 15 min at 37° C. On the procedure:
Test compounds include Compound 1 (“Test Compound 1”), Compound 101 (“Test Compound 2”), and MLN4924 (“Comparison Compound”; Sulfamic acid, [(1S,2S,4R)-4-[4-[[(1S)-2,3-dihydro-1H-inden-1-yl]amino]-7H-pyrrolo[2,3-d]pyrimidin-7-yl]-2-hydroxycyclopentyl]methyl ester; CAS Reg. No. 905579-51-3). Human HEK-293T cells were treated with 100 μM compound 1, 100 μM compound 101, 3 μM MLN4924 or 1% DMSO for 15 min. at 37° C. At the end of the incubation, cells were harvested and lysed. All cell lysates were fractionated by SDS-PAGE, proteins were transferred to nitrocellulose, and Cu11, Cu12 and Cu14 was detected by immunoblotting with an antibody that recognizes human Cu11, Cu12 or Cu14. Cu11-N8: human Cu11 modified with Nedd8. Cu12-N8: human Cu12 modified with Nedd8. Cu14-N8: human Cu14 modified with Nedd8.
(In western blotting, separated proteins are transferred to a membrane and probed.)

For assay [5], the target named is T3, AMSH-LP (Homo sapiens, UniProt Q96FJ0).
T3 sequence (Q96FJ0 1-436): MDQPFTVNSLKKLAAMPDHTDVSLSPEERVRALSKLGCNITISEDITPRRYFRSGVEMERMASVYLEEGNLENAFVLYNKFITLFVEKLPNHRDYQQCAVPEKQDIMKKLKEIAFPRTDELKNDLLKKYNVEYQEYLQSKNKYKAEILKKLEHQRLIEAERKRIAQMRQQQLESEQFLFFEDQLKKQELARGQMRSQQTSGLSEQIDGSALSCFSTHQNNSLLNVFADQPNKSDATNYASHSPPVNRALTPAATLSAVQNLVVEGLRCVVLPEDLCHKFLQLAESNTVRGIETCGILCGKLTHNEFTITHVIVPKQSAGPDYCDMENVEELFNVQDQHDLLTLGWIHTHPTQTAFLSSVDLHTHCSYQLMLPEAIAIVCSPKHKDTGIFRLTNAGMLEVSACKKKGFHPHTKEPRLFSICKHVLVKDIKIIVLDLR
Put plainly: AMSH-LP assay: di-ubiquitin K63 cleavage to mono-ubiquitin (SDS-PAGE, anti-ubiquitin blot). The format is biochemical. Conditions: AMSH-LP 50 nM, di-ubiquitin K63 1 μM, 20 hours at room temperature; read-out: approximate IC50, mono-ubiquitin product formation. An excerpt:
Formation of product is dependant on the presence of AMSH-LP (lane 1).

Assay [6] deals with T1, CSN5. Nature of the assay: Cell-based Csn5 assay: Cul1 neddylation in HEK-293T cells (immunoblot). Particulars: 30 min, increasing concentration. Also noted: endogenous in cells; host or cells: HEK-293T. How it is done: Because cullins undergo a dynamic cycling between neddylated and unneddylated forms by the action of NAE1 and Csn5, respectively, a Csn5 inhibitor will block the removal of Nedd8 from cullin resulting in the accumulation of Nedd8-cullin. HEK-293T cells were treated with compound 001 for 30 min., washed with PBS and lysed in gel loading buffer. Clarified cell lysates (40 μg) were electrophoresed, transferred to nitrocellulose and immunoblotted with α-Cu11 or α-actin sera.

Where [7] appears, read: Bioexample 16 table, read-out: CSN5 IC50.
Where [8] appears, read: Bioexample 16 table, read-out: RPN11 IC50.
The mark [9] stands for this setting: 0.5 nM 26S proteasome, 5 nM substrate, 120 min, room temperature (FIG. 4C-E), read-out: IC50, inhibition of Rpn11.

As for `Cc1ccnc2c(S)cccc12` [Compound 5], the IC50 (usually the concentration at which inhibition is half-maximal) in assay [1] (setting [7]) came out at 22200 nM; in assay [2] (setting [8]), 2500 nM.

As to `Oc1coccc1=S` [3-hydroxy-4H-pyran-4-thione, reference compound], in assay [2] (setting [9]), the half-inhibitory concentration (IC50) was 600 nM.

`Cc1cc(S)c2ncccc2c1` [Compound 7]: the IC50 in assay [2] (setting [8]) came to 800 nM.

Consider `c1cnc2c(c1)ccc1cccnc12` [o-phenanthroline, reference compound], for which the IC50 in assay [3] was found to be 590000 nM; in assay [2] (setting [9]) it was 158000 nM.

For `Cc1ccc(S)c2ncccc12` [Compound 6], the values for the half-maximal inhibitory concentration (IC50) in assay [1] (setting [7]) and in assay [2] (setting [8]) were 4100 nM and 1100 nM, respectively.

On to `NS(=O)(=O)OC[C@@H]1C[C@@H](n2ccc3c(N[C@H]4CCc5ccccc54)ncnc32)C[C@@H]1O` [MLN4924, Sulfamic acid, [(1S,2S,4R)-4-[4-[[(1S)-2,3-dihydro-1H-inden-1-yl]amino]-7H-pyrrolo[2,3-d]pyrimidin-7-yl]-2-hydroxycyclopentyl]methyl ester, reference compound], for which the “conversion of Cu11, Cu12 and Cu14 to Nedd8-modified species” value in assay [4] (3 μM) was “remain in the non-neddylated form”.

As to `CC(C)C[C@@H](C=O)NC(=O)[C@H](CC(C)C)NC(=O)[C@H](CC(C)C)NC(=O)OCc1ccccc1` [MG132, N-(benzyloxycarbonyl)leucinylleucinylleucinal] (Cbz-Leu-Leu-Leu-aldehyde), in assay [3], the half-inhibitory concentration (IC50) turned out to be 230 nM.

With `Cc1ccc2cccc(S)c2n1` [Compound 3, 8-SH-2-Me-quinoline], in assay [2] (setting [8]), the half-maximal inhibitory concentration (IC50) amounted to 6100 nM.

For `Sc1cccc2cccnc12` [Compound 1, 8-quinolinethiol], the 50% inhibitory concentration (IC50) in assay [3] is 120 nM; in assay [1] (Cop9 signalsome, 8-point titration 100 μM to 0.05 μM, four-parameter fit (FIG. 11), read-out: IC50 on Csn5) it was 6500 nM; in assay [1] (purified CSN, fluorescence polarization, dose escalation (FIG. 2B), read-out: IC50, CSN release of Nedd8OG from Cu11-Nedd8OG), 3800 nM; in assay [2] (setting [9]), 3300 nM; in assay [2] (setting [8]), 1100 nM; in assay [5] it was around 1600 nM. For the same compound, the “conversion of Cu11, Cu12 and Cu14 to Nedd8-modified species” value in assay [4] (100 μM) is on record as “largely modified with Nedd8”. Also, the “shift of Cu11 between unneddylated and neddylated form” value in assay [6] is reported as “shifts the Cu11 population from the undeddylated to the neddylated form”.

As to `Cc1cnc2c(S)cccc2c1` [Compound 4], the IC50 in assay [1] (setting [7]) was determined as 7700 nM; in assay [2] (setting [8]) it was 1300 nM.
